Assay results from article PMC6273789, “Asperpyrone-Type Bis-Naphtho-γ-Pyrones with COX-2–Inhibitory Activities from Marine-Derived Fungus Aspergillus niger” (Molecules, 2016).

Target: T1, COX-2 (Ovis aries, UniProt P79208)
T1 construct: gene PTGS2
T1 sequence (P79208 17-603): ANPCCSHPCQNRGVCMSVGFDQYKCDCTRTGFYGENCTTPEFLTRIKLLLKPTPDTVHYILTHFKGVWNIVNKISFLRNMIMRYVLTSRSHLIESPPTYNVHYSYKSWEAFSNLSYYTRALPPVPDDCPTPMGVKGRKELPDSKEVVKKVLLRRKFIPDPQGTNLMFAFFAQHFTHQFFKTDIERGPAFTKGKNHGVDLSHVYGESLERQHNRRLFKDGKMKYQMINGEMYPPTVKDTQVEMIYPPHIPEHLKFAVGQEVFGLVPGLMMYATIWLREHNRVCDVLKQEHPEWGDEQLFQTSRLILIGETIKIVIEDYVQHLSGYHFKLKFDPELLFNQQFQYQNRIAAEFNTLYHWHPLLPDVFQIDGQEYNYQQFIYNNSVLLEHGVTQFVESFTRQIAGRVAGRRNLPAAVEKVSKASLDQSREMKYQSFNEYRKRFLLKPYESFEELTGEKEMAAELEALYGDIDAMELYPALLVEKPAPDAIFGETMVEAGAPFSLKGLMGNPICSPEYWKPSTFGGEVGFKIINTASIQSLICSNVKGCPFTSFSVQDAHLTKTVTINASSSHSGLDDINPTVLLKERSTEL
Test: COX (ovine) inhibitor screening kit
Format: biochemical

| IC50 | SMILES |
| --- | --- |
| 11.1 µM | COc1cc(OC)c2c(O)c3c(=O)cc(C)oc3c(-c3c(O)cc4cc5c(c(O)c4c3OC)C(=O)CC(C)(O)O5)c2c1 (stereo not drawn) [compound 3, aurasperone F] |
| 4.2 µM | COc1cc(OC)c2c(O)c3c(c(-c4c(O)cc5cc6c(c(O)c5c4OC)C(=O)CC(C)(O)O6)c2c1)OC(C)(O)CC3=O (stereo not drawn) [compound 6, aurasperone C] |
| 6.4 µM | COc1cc(OC)c2c(O)c3c(=O)cc(C)oc3c(-c3c(O)cc4cc(O)c5c(=O)cc(C)oc5c4c3OC)c2c1 [compound 8, asperpyrone A] |
